Values quoted from earlier work in patent publication US7767860B2, “Substituted amino alcohols” (Auspex Pharmaceuticals, Inc, priority 2007, dated 2010).

System: Mycobacterium tuberculosis
Conditions: fold more potent; Hausler et al 2001; Stauffer et al 2002

CC[C@@H](CO)NCCN[C@@H](CC)CO [Ethambutol, 2-[2-(1-hydroxybutan-2-ylamino)ethylamino]butan-1-ol]
potency of the (S,S)-enantiomer relative to the (R,R)-enantiomer and the meso-isomer: 200-500 times
